# Reference: the supplement of paper PMC10307832
# Columns and labels:
# Experiment in all cases: relative viability (nuclei count vs DMSO), 5 days (fraction); higher = more cells survive
# Carboplatin + Alpelisib = compound: C1CC(C1)(C(=O)O)C(=O)O.[NH2-].[NH2-].[Pt+2] [Carboplatin] + Cc1nc(NC(=O)N2CCC[C@H]2C(N)=O)sc1-c1ccnc(C(C)(C)C(F)(F)F)c1 [Alpelisib] (partner 2 µM)
# Outline: (§1)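 Five library-drug doses in √10 steps were combined with a fixed anchor-drug dose, or a single drug was given alone, by pin tool to lung cancer cell lines in 1536-well plates the day after seeding. Nuclei were stained and counted after 5 days. Relative viability is the nuclei count in treated wells over that in vehicle wells, taken as the median of duplicate plates.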
# GSK126 + Trametinib = compound: CC[C@H](C)N1C=C(C2=C(C=C(C=C21)C3=CN=C(C=C3)N4CCNCC4)C(=O)NCC5=C(C=C(NC5=O)C)C)C [GSK126] + CC(=O)Nc1cccc(-n2c(=O)n(C3CC3)c(=O)c3c(Nc4ccc(I)cc4F)n(C)c(=O)c(C)c32)c1 [Trametinib] (partner 0.02 µM)
# Outline: as §1
# GSK126 + Olaparib = compound: CC[C@H](C)N1C=C(C2=C(C=C(C=C21)C3=CN=C(C=C3)N4CCNCC4)C(=O)NCC5=C(C=C(NC5=O)C)C)C [GSK126] + O=C(c1cc(Cc2n[nH]c(=O)c3ccccc23)ccc1F)N1CCN(C(=O)C2CC2)CC1 [Olaparib] (partner 8 µM)
# Outline: as §1
# MLN4924 + Lapatinib = compound: NS(=O)(=O)OC[C@@H]1C[C@@H](n2ccc3c(N[C@H]4CCc5ccccc54)ncnc32)C[C@@H]1O [MLN4924] + CS(=O)(=O)CCNCc1ccc(-c2ccc3ncnc(Nc4ccc(OCc5cccc(F)c5)c(Cl)c4)c3c2)o1 [Lapatinib] (partner 2 µM)
# Outline: as §1
Cell Line,relative viability (Carboplatin + Alpelisib; first compound 0.08 µM),relative viability (Carboplatin + Alpelisib; first compound 0.253 µM),relative viability (Carboplatin + Alpelisib; first compound 0.8 µM),relative viability (Carboplatin + Alpelisib; first compound 2.53 µM),relative viability (Carboplatin + Alpelisib; first compound 8 µM),relative viability (GSK126 + Trametinib; first compound 0.08 µM),relative viability (GSK126 + Trametinib; first compound 0.253 µM),relative viability (GSK126 + Trametinib; first compound 0.8 µM),relative viability (GSK126 + Trametinib; first compound 2.53 µM),relative viability (GSK126 + Trametinib; first compound 8 µM),relative viability (GSK126 + Olaparib; first compound 0.08 µM),relative viability (GSK126 + Olaparib; first compound 0.253 µM),relative viability (GSK126 + Olaparib; first compound 0.8 µM),relative viability (GSK126 + Olaparib; first compound 2.53 µM),relative viability (GSK126 + Olaparib; first compound 8 µM),relative viability (MLN4924 + Lapatinib; first compound 0.04 µM),relative viability (MLN4924 + Lapatinib; first compound 0.1265 µM),relative viability (MLN4924 + Lapatinib; first compound 0.4 µM),relative viability (MLN4924 + Lapatinib; first compound 1.265 µM),relative viability (MLN4924 + Lapatinib; first compound 4 µM)
NCI-H1437,0.988,0.989,0.929,0.947,0.828,0.507,0.528,0.494,0.459,0.501,0.649,0.621,0.605,0.554,0.575,0.79,0.656,0.268,0.119,0.1
NCI-H1651,0.846,1.1,0.907,0.876,0.573,0.794,0.86,0.811,0.844,0.866,0.183,0.175,0.176,0.178,0.161,0.911,0.776,0.281,0.138,0.116
NCI-H1666,1.16,0.909,0.855,0.773,0.543,0.859,0.998,0.841,0.818,0.838,0.745,0.723,0.742,0.729,0.76,0.382,0.307,0.305,0.159,0.211
NCI-H1734,0.647,0.757,0.632,0.67,0.589,0.801,0.63,0.662,0.731,0.766,0.633,0.685,0.628,0.701,0.756,1.02,0.925,0.19,0.118,0.134
NCI-H1755,0.928,0.894,0.97,0.932,0.894,0.771,0.736,0.777,0.826,0.793,0.9,0.922,0.877,0.826,0.822,0.933,1.03,0.386,0.181,0.165
NCI-H1792,0.802,0.634,0.515,0.444,0.6,0.492,0.397,0.43,0.405,0.406,0.471,0.351,0.507,0.374,0.551,0.806,0.599,0.484,0.182,0.175
NCI-H1793,0.874,0.645,0.561,0.751,0.588,0.432,0.423,0.457,0.384,0.338,0.931,0.8,0.732,1.24,0.989,0.662,0.645,0.395,0.136,0.167
NCI-H1915,1.05,1.06,0.966,0.893,0.675,0.344,0.29,0.313,0.315,0.332,0.271,0.277,0.25,0.266,0.269,0.88,0.962,0.649,0.166,0.156
NCI-H1944,0.98,0.857,0.813,0.701,0.643,0.415,0.373,0.435,0.443,0.413,0.431,0.376,0.402,0.408,0.387,0.834,0.919,0.636,0.164,0.17
NCI-H1975,0.669,0.655,0.728,0.598,0.666,0.377,0.31,0.362,0.369,0.352,0.785,0.789,0.721,0.809,0.762,1.13,1.02,0.308,0.152,0.169
NCI-H1993,0.663,0.745,0.643,0.62,0.678,0.517,0.525,0.448,0.54,0.467,1.21,1.02,1,1.06,0.893,0.732,0.666,0.581,0.547,0.516
NCI-H2009,1.3,1.11,1.15,0.973,0.695,0.332,0.233,0.286,0.348,0.321,0.755,0.653,0.714,0.588,0.713,0.437,0.261,0.237,0.087,0.111
NCI-H2023,0.65,0.546,0.601,0.397,0.193,0.718,0.6,0.646,0.533,0.603,0.489,0.496,0.446,0.467,0.382,0.352,0.133,0.0733,0.0477,0.0781
NCI-H2085,0.998,1.05,0.907,0.882,0.756,0.614,0.658,0.554,0.569,0.568,0.77,0.784,0.764,0.771,0.762,0.812,0.89,0.465,0.313,0.283
NCI-H2087,1.18,1.04,0.992,0.848,0.647,0.223,0.211,0.246,0.2,0.2,0.62,0.6,0.683,0.752,0.788,0.843,0.597,0.233,0.142,0.132
NCI-H2126,0.777,0.763,0.795,0.758,0.713,0.552,0.576,0.536,0.494,0.564,0.963,0.957,0.884,0.916,0.915,0.724,0.762,0.406,0.241,0.261
